The values that follow come from patent US7569539B2, “Oral administration of calcitonin” (Novartis AG, priority 2002, dated 2009).

Series [1] is described as follows: Effect of meal timing on plasma sCT after oral sCT/5-CNAC tablet in human subjects (Example 7). The following applies: for AUC / Cmax: both sexes, human, plasma, po, 1 mg, oral tablet 1 mg sCT + 5-CNAC disodium salt, plasma sCT; for AUC: read-out: Mean AUC ± SD; for Cmax: read-out: Mean Cmax ± SD. The format is in vivo. How it is done:
The effect of administration of a tablet formulation of sCT in combination with 5-CNAC disodium salt at various time intervals relative to meals is measured in human subjects.
The tablet formulation employed is a formulation according to Example 5, comprising 1 mg sCT and 5-CNAC disodium salt in an amount corresponding to […] of 5-CNAC.
The study employs a seven-period, randomized, open-label, balanced Latin-square, crossover design. Twenty-one human healthy adult subjects (7 males, 7 pre-menopausal females and 7 post-menopausal females), between the ages of 18 and 65 years of age are involved. Pre- and post-menopausal females are matched for height (±0.5 cm) and weight (±8%).
The study consists of a screening period (−21 to −2 days prior to dosing), a baseline period (24-hour period prior to dosing, or day −1), and a treatment period comprised of seven daily single-dose administrations. Subjects are instructed to fast for at least 8 hours prior to undergoing screening evaluations so that blood samples can be drawn for bioanalytical testing. At baseline, subjects are admitted to the study center at least 12 hours prior to dosing and remain domiciled until study completion (one day following the final dose of study drug, or study day 8). The interdose interval between each treatment will be approximately 24 hours. Subjects are randomized according to the treatment allocation schedule to receive a single oral dose under either fasted or fed conditions. Under fed conditions, meal times vary relative to a fixed dosing time, in order to assess the effect of varying meal and dose intervals on drug pharmacokinetics.
During the treatment period, subjects fast overnight for a minimum of 10 hours prior to dosing, except when the specified treatment condition requires a meal to be served pre-dose. Dosing occurs between 9 and 10 AM for seven consecutive days. Meal times vary around a fixed dosing interval over a seven-day treatment period in order to determine optimal dosing times relative to food intake. Included is the administration of study drug under fasting conditions, which will serve as the reference condition to assess drug pharmacokinetics under varying meal and dose intervals, as well as study drug administration with meals, to determine the extent of food interaction.
The order in which subjects are initially dosed remains consistent throughout the study, so that the first subject dosed in period 1 remains the first subject dosed across all treatment conditions. Except where fasting is the specified treatment condition, subjects receive a standardized FDA (or equivalent) high-fat breakfast at a different time each day relative to dosing. Subjects whose treatment assignment is to fast, continue fasting for at least four hours post-dose, after which they may receive a standard meal at the specified time. Sampling for pharmacokinetic assessments are performed at scheduled intervals for up to 8 hours post-dose. If pharmacokinetic sampling times coincide with the start of a meal, sampling occurs first. Subjects are discharged from the study center one day following the final dose of study drug (day 8), after the completion of all safety evaluations.
Pharmacokinetic blood sampling is performed each day at the following timepoints (unless otherwise specified, when sampling times coincide with the start of a meal, sampling is done first): pre-dose (5 mL blood on each treatment day, lithium-heparin tubes to yield plasma), and then 5, 10, 15, 30, 45, 60, 90, 120, 180 and 240 minutes post-dose (3 mL blood), lithium-heparin tube to yield plasma). For treatment conditions B, C, D and E (see table below) one additional sample (3 mL) is obtained at 5 minutes after the start of the meal. For treatment condition E, the 10 minute sample also represents the 5-minute post-meal sample. For treatment B only, one additional sample is obtained at 15 minutes after the start of the meal (i.e., at 75 minutes post-dose). […]

Assay in series [2]: as above
The format is in vivo. The following applies: tablet 1 mg sCT + 5-CNAC disodium salt (equivalent to 200 mg 5-CNAC), 5 to 60 minutes prior to a meal instead of with a meal.

Where [3] appears, read: Treatment group A: after overnight fast.
Where [4] appears, read: Treatment group B: 1 hour pre-meal.
The mark [5] stands for this setting: Treatment group C: 30 minutes pre-meal.
The mark [6] stands for this setting: Treatment group D: 15 minutes pre-meal.
The mark [7] stands for this setting: Treatment group E: 5 minutes pre-meal.
Where [8] appears, read: Treatment group G: 2.5 hours post-meal.

Molecules are shown by their SMILES. Read-outs that look alike come from different tables or passages of the source.

For the molecule `CC(C)C[C@H](NC(=O)[C@H](CCCCN)NC(=O)CNC(=O)[C@H](CC(C)C)NC(=O)[C@@H](NC(=O)[C@@H]1CSSC[C@H](N)C(=O)N[C@@H](CO)C(=O)N[C@@H](CC(N)=O)C(=O)N[C@@H](CC(C)C)C(=O)N[C@@H](CO)C(=O)N[C@@H]([C@@H](C)O)C(=O)N1)C(C)C)C(=O)N[C@@H](CO)C(=O)N[C@@H](CCC(N)=O)C(=O)N[C@@H](CCC(=O)O)C(=O)N[C@@H](CC(C)C)C(=O)N[C@@H](Cc1c[nH]cn1)C(=O)N[C@@H](CCCCN)C(=O)N[C@@H](CC(C)C)C(=O)N[C@@H](CCC(N)=O)C(=O)N[C@H](C(=O)N[C@@H](Cc1ccc(O)cc1)C(=O)N1CCC[C@H]1C(=O)N[C@@H](CCCNC(=N)N)C(=O)N[C@H](C(=O)N[C@@H](CC(N)=O)C(=O)N[C@H](C(=O)NCC(=O)N[C@@H](CO)C(=O)NCC(=O)N[C@H](C(=O)N1CCC[C@H]1C(N)=O)[C@@H](C)O)[C@@H](C)O)[C@@H](C)O)[C@@H](C)O` [sCT, salmon calcitonin], the “plasma levels of sCT” value in series [1] (Groups C and D: administered either 15 or 30 minutes before a meal) is “maximum plasma levels”; in series [1] (administration with a meal (Group F)) it was “negligible”. In addition, the AUC in series [1] (setting [3]) was 0.0663 ± 0.0422 ng·h/mL; in series [1] (setting [4]) it was 0.0634 ± 0.0379 ng·h/mL; in series [1] (setting [5]) it was 0.079 ± 0.0793 ng·h/mL; in series [1] (setting [6]), 0.0721 ± 0.0451 ng·h/mL; in series [1] (setting [7]), 0.0604 ± 0.0674 ng·h/mL; in series [1] (Treatment group F: with meal) it was 0.0126 ± 0.0185 ng·h/mL. Moreover, in series [1] (setting [8]), the AUC was determined as 0.0611 ± 0.114 ng·h/mL. Besides, the Cmax is 0.139 ± 0.0743 ng/mL in series [1] (setting [3]); 0.136 ± 0.0647 ng/mL in series [1] (setting [4]); 0.162 ± 0.142 ng/mL in series [1] (setting [5]); 0.162 ± 0.0679 ng/mL in series [1] (setting [6]); 0.149 ± 0.151 ng/mL in series [1] (setting [7]); 0.024 ± 0.0267 ng/mL in series [1] (Treatment group F: with meal). In series [1] (setting [8]), the Cmax was 0.0798 ± 0.134 ng/mL. In series [2], the “increase (Cmax and AUC) in oral absorption” value was approximately 5 fold.
